Each structure is given as a SMILES string.

For the test, the system named is PMA-stimulated P90RSK(Ser380) phosphorylation in HepG2 cells. Kind of test: Cellular P90RSK(Ser380) Phosphorylation Assay. The format is cell-based. As to conditions: Homo sapiens, read-out: Biological Example 2 IC50 (nM), 1.5 hours compound incubation, PMA 100 ng/mL 30 minutes, normalized to GAPDH, single assay or mean of multiple assays. The procedure: Inhibition of PMA-stimulated P90RSK(Ser380) phosphorylation was determined by the following in vitro cellular mechanistic assay, which comprises incubating cells with a compound for 1.5 hours and quantifying fluorescent pP90RSK(Ser380) signal on fixed cells and normalizing to GAPDH signal.
HepG2 cells were obtained from ATCC and grown in DMEM supplemented with 10% fetal bovine serum. Cells were plated in 96-well plates at 35,000 cells/well and allowed to attach overnight at 37° C./5% CO2. Diluted compounds were then added at a final concentration of 0.5% DMSO. After 1.5 hours compound incubation, cells were stimulated with the addition of phorbol 12-myristate 13-acetate (“PMA”) at a final concentration of 100 ng/mL; the PMA stimulation was a 30-minute incubation at 37° C./5% CO2. After the 30-minute PMA stimulation, cells were washed with phosphate buffered saline (“PBS”) and fixed in 3.7% formaldehyde in PBS at room temperature for 15-20 minutes. This was followed by another wash in PBS and then permeabilization in 100% MeOH at room temperature for 10-15 minutes. Following the permeabilization incubation, cells were washed in PBS/0.05% Tween-20, followed by a block in Odyssey blocking buffer (LI-COR Biosciences) for at least 1 hour. […] Both secondary antibodies were used at a 1:1000 dilution. Cells were then washed and analyzed for fluorescence at both wavelengths using the Odyssey Infrared Imaging System (LI-COR Biosciences). Phosphorylated P90RSK(Ser380) signal was normalized to GAPDH signal.
As to `O=c1cc(-c2ccnc(NC3CCOCC3)n2)ccn1[C@H](CO)c1cc2cc(F)ccc2[nH]1` [Example 291, (S)-1-(1-(5-fluoro-1H-indol-2-yl)-2-hydroxyethyl)-4-(2-((tetrahydro-2H-pyran-4-yl)amino)pyrimidin-4-yl)pyridin-2(1H)-one], the IC50 amounted to 55.9 nM. As for `O=c1cc(-c2ccnc(NC3CCOCC3)n2)ccn1C(c1ccc(Cl)c(F)c1)[C@@H]1CCCN1` (stereo partly drawn) [Example 102, 1-((4-chloro-3-fluorophenyl)((S)-pyrrolidin-2-yl)methyl)-4-(2-((tetrahydro-2H-pyran-4-yl)amino)pyrimidin-4-yl)pyridin-2(1H)-one], the figure is > 5000 nM; as for `C=C(c1ccc(Cl)c(F)c1)n1ccc(-c2ccnc(Nc3ccnc(C)c3)n2)cc1=O` [Example 172, 1-(1-(4-chloro-3-fluorophenyl)vinyl)-4-(2-((2-methylpyridin-4-yl)amino)pyrimidin-4-yl)pyridin-2(1H)-one], 12.9 nM; as for `O=c1cc(-c2ccnc(NC3CCOCC3)n2)ccn1[C@H](CO)c1cccc(Cl)c1` [Example 57, (S)-1-(1-(3-chlorophenyl)-2-hydroxyethyl)-4-(2-((tetrahydro-2H-pyran-4-yl)amino)pyrimidin-4-yl)pyridin-2(1H)-one], 1770 nM. As for `O=c1cc(-c2ccnc(NC3CCOCC3)n2)ccn1Cc1cc2c(F)cccc2[nH]1` [Example 266, 1-((4-fluoro-1H-indol-2-yl)methyl)-4-(2-((tetrahydro-2H-pyran-4-yl)amino)pyrimidin-4-yl)pyridin-2(1H)-one], the IC50 is 8.6 nM. As for `CC(C)(N)C(=O)OC[C@H](c1ccc(Cl)c(F)c1)n1ccc(-c2ccnc(NC3CCOCC3)n2)cc1=O` [Example 290, (S)-2-(4-chloro-3-fluorophenyl)-2-(2-oxo-4-(2-((tetrahydro-2H-pyran-4-yl)amino)pyrimidin-4-yl)pyridin-1(2H)-yl)ethyl 2-amino-2-methylpropanoate], the figure is 26.5 nM; as for `CC[C@@H](CO)Nc1nccc(-c2ccn(C(C)c3ccc(Cl)c(F)c3)c(=O)c2)n1` (stereo partly drawn) [Example 134, 1-(1-(4-chloro-3-fluorophenyl)ethyl)-4-(2-(((S)-1-hydroxybutan-2-yl)amino)pyrimidin-4-yl)pyridin-2(1H)-one], 544 nM; as for `O=c1cc(-c2ccnc(NC3CCOCC3)n2)ccn1[C@H](COP(=O)(O)O)c1ccc(Cl)c(F)c1` [Example α, (S)-2-(4-chloro-3-fluorophenyl)-2-(2-oxo-4-(2-((tetrahydro-2H-pyran-4-yl)amino)pyrimidin-4-yl)pyridin-1(2H)-yl)ethyl dihydrogen phosphate], 955 nM. Regarding `Cn1cc(C(c2ccc(Cl)c(Cl)c2)n2ccc(-c3nc(NC4CCOCC4)ncc3F)cc2=O)cn1` (stereo not drawn) [Example 209, 1-((3,4-dichlorophenyl)(1-methyl-1H-pyrazol-4-yl)methyl)-4-(5-fluoro-2-((tetrahydro-2H-pyran-4-yl)amino)pyrimidin-4-yl)pyridin-2(1H)-one], the IC50 worked out at 6.7 nM.

In the case of `O=c1cc(-c2ccnc(N[C@H]3CCOC[C@H]3F)n2)ccn1[C@H](CO)c1ccc(Cl)c(Cl)c1` [Example 4, 1-((S)-1-(3,4-dichlorophenyl)-2-hydroxyethyl)-4-(2-(((3S,4S)-3-fluorotetrahydro-2H-pyran-4-yl)amino)pyrimidin-4-yl)pyridin-2(1H)-one], the IC50 amounted to 8.5 nM. In the case of `CCc1nccc(Nc2nccc(-c3ccn(C(CO)c4ccc(Cl)c(F)c4)c(=O)c3)n2)n1` (stereo not drawn) [Example 139, 1-(1-(4-chloro-3-fluorophenyl)-2-hydroxyethyl)-4-(2-((2-ethylpyrimidin-4-yl)amino)pyrimidin-4-yl)pyridin-2(1H)-one], the IC50 came to 372 nM. Next, `O=c1cc(-c2ccnc(N[C@H]3CCOC[C@H]3F)n2)ccn1[C@H](CO)c1ccc(Cl)c(F)c1` [Example 2, 1-((S)-1-(4-chloro-3-fluorophenyl)-2-hydroxyethyl)-4-(2(((3S,4S)-3-fluorotetrahydro-2H-pyran-4-yl)amino)pyrimidin-4-yl)pyridin-2(1H)-one]: 59.1 nM. Turning to `CCn1cc(Nc2nccc(-c3ccn([C@H](CO)c4ccc(Cl)c(F)c4)c(=O)c3)n2)c(C)n1` [Example 173, (S)-1-(1-(4-chloro-3-fluorophenyl)-2-hydroxyethyl)-4-(2-((1-ethyl-3-methyl-1H-pyrazol-4-yl)amino)pyrimidin-4-yl)pyridin-2(1H)-one], the IC50 was found to be 110 nM.

In the case of `CC(=O)OC[C@H](c1ccc(Cl)c(F)c1)n1ccc(-c2ccnc(Nc3ccnn3C)n2)cc1=O` [Example 293, (S)-2-(4-chloro-3-fluorophenyl)-2-(4-(2-((1-methyl-1H-pyrazol-5-yl)amino)pyrimidin-4-yl)-2-oxopyridin-1(2H)-yl)ethyl acetate], the IC50 was 16.8 nM.

As for `C[C@@H](CO)Nc1nccc(-c2ccn(C(CO)c3cccc(Cl)c3)c(=O)c2)n1` (stereo partly drawn) [Example 58, 1-(1-(3-chlorophenyl)-2-hydroxyethyl)-4-(2-(((S)-1-hydroxypropan-2-yl)amino)pyrimidin-4-yl)pyridin-2(1H)-one], the IC50 stood at 708 nM. Next, `O=c1cc(-c2ccnc(NC3CCOCC3)n2)ccn1Cc1cc(F)c2cc[nH]c2c1` [Example 289, 1-((4-fluoro-1H-indol-6-yl)methyl)-4-(2-((tetrahydro-2H-pyran-4-yl)amino)pyrimidin-4-yl)pyridin-2(1H)-one]: 20.4 nM; `NC[C@H](c1ccc(Cl)c(F)c1)n1ccc(-c2ccnc(NC3CCOCC3)n2)cc1=O` [Example 305, (S)-1-(2-amino-1-(4-chloro-3-fluorophenyl)ethyl)-4-(2-((tetrahydro-2H-pyran-4-yl)amino)pyrimidin-4-yl)pyridin-2(1H)-one]: 53 nM; `O=c1cc(-c2ccnc(N[C@@H]3CCOC[C@H]3F)n2)ccn1[C@H](CO)c1ccc(Cl)c(F)c1` [Example 3, 1-((S)-1-(4-chloro-3-fluorophenyl)-2-hydroxyethyl)-4-(2-(((3S,4R)-3-fluorotetrahydro-2H-pyran-4-yl)amino)pyrimidin-4-yl)pyridin-2(1H)-one]: 40.3 nM. `O=c1cc(-c2ccnc(NC3CCOCC3)n2)ccn1Cc1cc2ccc(Cl)cc2[nH]1` [Example 250, 1-((6-chloro-1H-indol-2-yl)methyl)-4-(2-((tetrahydro-2H-pyran-4-yl)amino)pyrimidin-4-yl)pyridin-2(1H)-one]: the IC50 was 15.2 nM.

With `COc1ccc([C@@H]([C@H]2CCCN2)n2ccc(-c3ccnc(NC4CCOCC4)n3)cc2=O)cc1F` [Example 50, 1-((S)-(3-fluoro-4-methoxyphenyl)((R)-pyrrolidin-2-yl)methyl)-4-(2-((tetrahydro-2H-pyran-4-yl)amino)pyrimidin-4-yl)pyridin-2(1H)-one], the IC50 stood at 292 nM. With `O=c1cc(-c2ccnc(NC3CCOCC3)n2)ccn1CCc1ccc(OC(F)(F)F)cc1` [Example 157, 4-(2-((tetrahydro-2H-pyran-4-yl)amino)pyrimidin-4-yl)-1-(4-(trifluoromethoxy)phenethyl)pyridin-2(1H)-one], the IC50 is 46.3 nM. Consider `Cn1nccc1Nc1nccc(-c2ccn([C@H](CO)c3ccc(Cl)c(F)c3)c(=O)c2)n1` [Example 39, (S)-1-(1-(4-chloro-3-fluorophenyl)-2-hydroxyethyl)-4-(2-((1-methyl-1H-pyrazol-5-yl)amino)pyrimidin-4-yl)pyridin-2(1H)-one], for which the IC50 was determined as 15.5 nM. With `O=c1cc(-c2ccnc(NC3CCOCC3)n2)ccn1[C@H](COCOP(=O)(O)O)c1ccc(Cl)c(F)c1` [Example β, (S)-(2-(4-chloro-3-fluorophenyl)-2-(2-oxo-4-(2-((tetrahydro-2H-pyran-4-yl)amino)pyrimidin-4-yl)pyridin-1(2H)-yl)ethoxy)methyl dihydrogen phosphate], the IC50 is 99.6 nM. As to `Cc1cc(Nc2nccc(-c3ccn([C@H](CO)c4ccc(Cl)c(F)c4)c(=O)c3)n2)n(C)n1` [Example 167, (S)-1-(1-(4-chloro-3-fluorophenyl)-2-hydroxyethyl)-4-(2-((1,3-dimethyl-1H-pyrazol-5-yl)amino)pyrimidin-4-yl)pyridin-2(1H)-one], the IC50 worked out at 100 nM. Take `Cc1nn(C)cc1Nc1nccc(-c2ccn(C(CO)c3ccc(Cl)c(F)c3)c(=O)c2)n1` (stereo not drawn) [Example 166, 1-(1-(4-chloro-3-fluorophenyl)-2-hydroxyethyl)-4-(2-((1,3-dimethyl-1H-pyrazol-4-yl)amino)pyrimidin-4-yl)pyridin-2(1H)-one]: the IC50 was found to be 12.9 nM.

In the case of `O=c1cc(-c2ccnc(N[C@@H]3C[C@@H]4C[C@H]3CO4)n2)ccn1[C@H](CO)c1ccc(Cl)c(F)c1` [Example 42, 4-(2-((1S,4R,5R)-2-oxabicyclo[2.2.1]heptan-5-ylamino)pyrimidin-4-yl)-1-((S)-1-(4-chloro-3-fluorophenyl)-2-hydroxyethyl)pyridin-2(1H)-one], the IC50 was found to be 74 nM. Next, `C=C(c1ccc(Cl)c(F)c1)n1ccc(-c2ccnc(Nc3ccnn3CC)n2)cc1=O` [Example 295, 1-(1-(4-chloro-3-fluorophenyl)vinyl)-4-(2-((1-ethyl-1H-pyrazol-5-yl)amino)pyrimidin-4-yl)pyridin-2(1H)-one]: 204 nM.
